Data published in US20160340656A1, “PEPTIDES DERIVED FROM GSE 24.2 FOR TREATING DISEASES CAUSED BY OXIDATIVE STRESS AND DAMAGE TO DNA” (CONSEJO SUPERIOR DE INVESTIGACIONES CIENTÍFICAS (CSIC), priority 2013, published 2016).

Tests used:
Format in all cases: cell-based, human
[1] = tested on: p38 MAP kinase (phosphorylated on Thr180/Try182) in AT719 cells; experiment: Levels of phosphorylated p38 by Western blot in AT cells; details: three weeks after infection, control AT736 = 1
From the text: FIG. 4. Determination of the levels of phosphorylation of p38 in AT cells: AT719-P AT cells were infected with a lentiviral vector expressing GSE24.2 or a GFP empty vector and three weeks later protein extracts were obtained. AT719-P AT cells infected with GSE24.2 were also used and the population with the maximum fluorescence was selected using a sorter (AT AT719-P GSE24.2 sorter). AT736C cells were used as a control. The proteins were resolved on polyacrylamide gels and transferred to nitrocellulose membranes. The membrane was hybridised with a polyclonal antibody against the protein p38 phosphorylated on Thr180/Try182 and non-phosphoryated protein as a loading control. The relative values between the phosphorylated and non-phosphorylated proteins obtained (using the NIH-Image program) for the control cell line were considered as 1 and the others referred to it.
One of the characteristics of AT patient cells is a higher activation of p38 MAP kinase due to the failure of function of the ATM protein. This increase in activation of p38 triggers the process of cell death in AT cells and therefore a reduction in the number of neuronal cells. […] The signal obtained in both hybridisations was quantified with the NIH-Image program and relative values between the phosphorylated and non-phosphorylated proteins obtained for the control cell line were considered as 1.

AT719 cells = experiment: Viability (MTS) in response to bleomycin in AT cells; details: increasing concentrations of bleomycin, 72 hours, versus AT736C control
Procedure: FIG. 5. Determination of the viability in response to bleomycin in AT cells: AT719-P AT cells were infected with a lentiviral vector expressing GSE24.2 or a GFP empty vector and three weeks later they were treated with different doses of bleomycin. AT736C cells were used as a control. The cells were fixed after 72 hours of treatment and viability determined with the MTS reagent. The values represent the result of the test performed in triplicate and express the viability with respect to untreated cells.
Mutations in gene ATM sensitise cells of AT patients to treatment with ionizing radiation or radiomimetic drugs such as bleomycin. In order to verify if the protective effect induced by GSE24.2 in cells of AT patients also extends to radiomimetic agents, AT719 patient cells expressing pCMV-GFP-GSE24.2 or an empty vector expressing only GFP (GFP) were treated with increasing concentrations of bleomycin for 72 hours. After this time, cell viability was evaluated using MTS reagent. AT736C cells were used as a control.

AT719-P cells = experiment: Oxidative stress (ROS by DHE, flow cytometry) in AT719-P cells expressing GSE24.2 or GSE4; details: three weeks after infection
Procedure: FIG. 11. Determination of oxidative stress levels in ataxia telangiectasia cells after expressing the peptides GSE24.2 and GSE4. AT719-P cells were infected with a lentiviral vector expressing GSE24.2, GSE4 or a GFP empty vector and three weeks later loaded with the DHE reagent that detects levels of reactive oxygen species (ROS). AT736C cells were used as a control. The relative fluorescence of the four cell lines and the proportion of cells with maximum intensity were determined by flow cytometry at wavelengths of 518 nm absorption and 605 nm emission. The data are shown as relative percentage of cells that emit at this wavelength.
(§1) As the peptide denominated GSE4 was smaller than the peptides with ability to repair telomerase activity, we studied if it had the same activity as peptide GSE24.2 for attenuating oxidative stress, expression of proinflammatory cytokines and repairing the senescence in ataxia telangiectasia cells. […] Finally, given that the increase in expression of the interleukins IL6 and IL8 are associated with a secretory phenotype linked to senescence in ataxia telangiectasia, we evaluated the ability of both peptides GSE24.2 and GSE4 to reduce senescence by evaluating senescence-associated β-galactosidase activity (SA-beta-Gal) (FIG. 13).

IL8 = experiment: Expression of proinflammatory cytokine IL8 in AT719-P cells; details: relative to β-actin
Procedure: FIG. 12. Levels of expression of proinflammatory cytokines in ataxia telangiectasia cells after expressing peptides GSE24.2 and GSE4. AT719-P AT cells were infected with a lentiviral vector expressing GSE24.2, GSE4 or a GFP empty vector and three weeks later the RNA was extracted and after obtaining the corresponding cDNA, the levels of expression of the proinflammatory cytokines IL6 and IL8 were determined. AT736C cells were used as a control. The levels of expression of the gene β-actin were measured as control of expression. The results are expressed as the relative increase in the number of times of expression of each of the genes compared to β-actin, considering the levels of expression of AT736C cells as 1.
as §1

AT2078 AT cells = experiment: Senescence-associated β-galactosidase activity in AT cells; details: 3 days or eight days after infection
From the text: FIG. 13. Determination of senescence of AT cells after expressing peptides GSE24.2 and GSE4: AT2078 AT cells were infected with a lentiviral vector expressing GSE24.2, GSE4 or a GFP empty vector and 3 days or eight days later they were fixed to determine the expression of the enzyme β-galactosidase acid associated with senescence (senescence-associated β-galactosidase). Control C-1787 cells were used as the negative control. The percentage of cells expressing β-galactosidase from the total cells per field was determined. 200 cells per cell type were evaluated and the results grouped into cells showing no activity (βgal-, in division) and senescent cells (β-gal+).
as §1

Sequence | phosphorylated / non-phosphorylated p38 relative value [1] | viability after bleomycin (AT719 cells) | reduction of levels of free radicals (AT719-P cells) [%] | reduction of levels of expression of IL8 (IL8) | senescence: percentage of cells positive for beta-galactosidase activity (AT2078 AT cells)
GFINLDKPSNPSSHEVVAWIRRILRVEKTGHSGTLDPKVTGCLIVCIERATRLVK (GSE24.2; listed as Homo sapiens) [55-amino-acid peptide corresponding to the protein dyskerin; known from WO2007/090911] | reduced significantly to levels similar to control cells | able to increase viability of AT719 cells to levels similar to control cells | ~50 | in the same range | reduced the percentage of positive cells for beta-galactosidase activity progressively over time
GFINLDKPSNP [GSE4] |  |  | 50 | 90% | reduced the percentage of positive cells for beta-galactosidase activity progressively over time
